The text below walks through data of patent US9045525B2, “Amyloid β-protein-specific production-inhibiting polypeptide” (THE DOSHISHA, priority 2012, dated 2015).

Series [1] concerns Notch transiently expressed in CHO-K1 cells (7WD10 cells). As to the kind of experiment: Cleavage of Notch protein (NICD) in 7WD10 cells. It counts as cell-based. To be noted: polypeptide 1, 5, 10, 20, and 50 μM. How it is done: An experiment was conducted wherein #1, #2, and #4 polypeptides were reacted with CHO-K1 cells (7WD10 cells) that stably expressed APP protein and transiently expressed Notch to confirm the production of Aβ protein and cleavage of Notch protein.

A further series concerns the target T1, APP in CHO-K1 cells (Cricetulus griseus, UniProt A0A8C2MGG8).
T1 construct: CHO-K1 cells expressing endogenous APP protein at a low level; endogenous in cells; host or cells: CHO-K1
Description: Analysis of subcellular distribution in CHO-K1 cells. To be noted: Biotin-modified #4 polypeptide, avidin-modified Alexa488; CHO-K1 cells expressing endogenous APP at a low level. It counts as cell-based. As for the experimental part:
Biotin-modified #4 polypeptide was prepared using a known method. This polypeptide was allowed to react with CHO-K1 cells and the 7WD10 cells mentioned above, and the resulting cells were immobilized, and then treated with Triton X-100. Thereafter, avidin-modified Alexa488 was reacted with the above. As the negative control experiment, an experiment was conducted reacting avidin-modified Alexa 488 in place of Biotin-modified #4 polypeptide.

In a further series the test system is Neuro 2A cells (N2A). As to the kind of experiment: Mouse Aβ production inhibition experiment, Neuro 2A cells. Particulars: polypeptide 20 μM, Neuro2A cells expressing mouse-type APP, anti-mouse Aβ antibody Western blotting. It counts as cell-based. As for the experimental part: #1, #2, and #4 polypeptides were added to the culture solutions of CHO-K1 cells and Neuro 2A cells (N2A) in such a manner that the final concentration was 20 μM. As a control, L685458 (i.e., a γ-secretase inhibitor) and DMSO were added thereto in such a manner that the final concentration was 20 μM.
Thereafter, Aβ contained in the cell culture medium was identified by using a Western-blotting method with an antibody (anti-mouse Aβ antibody) that recognizes Aβ. […] In the figure, L indicates L685458, which is a γ-secretase inhibitor (final concentration of 1 μM).

The test system of the next series is Aβ in the cerebrum. As to the kind of experiment: Intraperitoneal administration to mouse, Aβ in cerebrum. It counts as in vivo. Particulars: 150 mg/kg intraperitoneally, three consecutive days, wild-type mice. How it is done: 150 mg/kg #4 polypeptide dissolved in DMSO was intraperitoneally administered to ten wild-type mice (C57 BL/6 N Cr Slc, seven weeks old). The administration was conducted for three consecutive days. Four days after, the mice were euthanized to extract the cerebrum.
The extracted cerebrums were dissolved by using a known method, subjected to immunoprecipitation with anti-4G8 antibody, and then subjected to Western blotting using the anti-mouse Aβ antibody. An experiment was conducted in the same manner except that only DMSO was administered as the negative control experiment group (ten mice).
In the Western blotting, an experiment was conducted using 5, 10, 50, 100, and 200 pg rodent-originated Aβ as the standard reference material. FIG. 10(A−1) and […] show the results.

The nature of series [2]: Intraperitoneal administration of FITC-modified polypeptide, localization around the hippocampus. Particulars: FITC-modified #4 polypeptide, 150 mg/kg intraperitoneally, three consecutive days, mouse. The format is in vivo. How it is done:
Subsequently, FITC-modified #4 polypeptide prepared by using a known method was intraperitoneally administered to a mouse. The dose was 150 mg/kg, and the administration was conducted for three consecutive days. Four days after, the mice were euthanized to prepare test pieces of tissue around the hippocampus. As the negative control experiment, DMSO was administered in place of FITC-modified #4 polypeptide.
In the figure, “CPLV” indicates the area called the “choroid plex” for producing cerebrospinal fluid.

Peptide text beside a SMILES is read from it.

T1 sequence (A0A8C2MGG8 18-770): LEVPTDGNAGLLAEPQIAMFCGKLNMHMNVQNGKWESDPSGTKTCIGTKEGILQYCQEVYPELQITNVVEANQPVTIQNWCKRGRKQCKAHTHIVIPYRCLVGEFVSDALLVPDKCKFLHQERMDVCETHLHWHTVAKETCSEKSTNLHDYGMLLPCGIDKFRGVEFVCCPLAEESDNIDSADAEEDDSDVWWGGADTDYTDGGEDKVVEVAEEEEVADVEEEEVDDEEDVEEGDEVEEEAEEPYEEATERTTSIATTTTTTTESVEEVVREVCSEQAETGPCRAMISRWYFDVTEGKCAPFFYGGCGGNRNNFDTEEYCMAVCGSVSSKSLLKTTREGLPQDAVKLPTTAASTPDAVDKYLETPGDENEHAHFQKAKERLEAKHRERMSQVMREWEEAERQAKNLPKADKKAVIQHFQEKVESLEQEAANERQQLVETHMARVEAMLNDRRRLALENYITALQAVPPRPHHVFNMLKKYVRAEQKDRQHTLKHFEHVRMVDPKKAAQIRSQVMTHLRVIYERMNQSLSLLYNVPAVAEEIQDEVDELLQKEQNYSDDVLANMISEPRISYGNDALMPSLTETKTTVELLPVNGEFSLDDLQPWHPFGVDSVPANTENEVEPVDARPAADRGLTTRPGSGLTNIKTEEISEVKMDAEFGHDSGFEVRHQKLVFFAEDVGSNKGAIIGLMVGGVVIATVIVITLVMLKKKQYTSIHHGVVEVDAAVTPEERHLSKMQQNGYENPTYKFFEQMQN

Take `CC[C@H](C)[C@H](NC(=O)[C@H](CC(=O)O)NC(=O)[C@@H](NC(=O)[C@@H](NC(=O)[C@H](CS)NC(=O)[C@H](Cc1ccc(O)cc1)NC(=O)[C@H](CS)NC(=O)[C@H](CC(=O)O)NC(=O)[C@H](CS)NC(=O)[C@@H](NC(=O)[C@@H](NC(=O)[C@H](CC(C)C)NC(=O)[C@H](Cc1c[nH]cn1)NC(=O)[C@H](CCSC)NC(C)=O)C(C)C)[C@@H](C)CC)[C@@H](C)O)[C@@H](C)O)C(=O)N[C@@H](CS)C(=O)N[C@@H](Cc1ccc(O)cc1)C(=O)N[C@@H](CS)C(=O)N[C@@H](Cc1ccc(O)cc1)C(=O)N[C@@H](CO)C(=O)N[C@@H](CS)C(=O)N[C@H](C(=O)N1CCC[C@H]1C(=O)N[C@@H](CC(N)=O)C(N)=O)[C@@H](C)O` [#4] (Ac-MHLVICDCYCTTDICYCYSCTPN-NH2): the “abundance of the NICD in the cell lysate” value in series [1] was “not decreased”. Moreover, the “binding to APP in cells” value at APP in CHO-K1 cells is listed as “binded to APP in the cells”. In addition, in the series with Neuro 2A cells (N2A), the “production of Aβ in the culture medium” value was “the production of Aβ in the culture medium was reduced”. For the same compound, in the series with Aβ in the cerebrum, the “Aβ production inhibition (bands quantified with densitometry)” value is recorded as “excellent Aβ production inhibition effect”. In the series on Aβ in the cerebrum (compared to DMSO), the “bands indicating Aβ in the cerebrum (Western blotting)” value is “the number of bands indicating Aβ was reduced”. In addition, in series [2], the “presence of polypeptide in CA1 region (fluorescent microscopy)” value is listed as “a portion dyed green indicating the presence of #4 polypeptide was confirmed”, the “presence of polypeptide in choroid plex (CPLV)” value is given as “a portion dyed green indicating the presence of #4 polypeptide was confirmed in the blood vessel” and the “presence of polypeptide in dentate gyrus (DG)” value is reported as “a portion dyed green indicating the presence of #4 polypeptide was also confirmed”.
